From patent publication US20240383904A1, “HETEROCYCLIC COMPOUNDS” (Hoffmann-La Roche Inc., priority 2021, published 2024)

Molecular target: T1, MAGL (Homo sapiens, UniProt Q99685)
T1 sequence (Q99685 1-303): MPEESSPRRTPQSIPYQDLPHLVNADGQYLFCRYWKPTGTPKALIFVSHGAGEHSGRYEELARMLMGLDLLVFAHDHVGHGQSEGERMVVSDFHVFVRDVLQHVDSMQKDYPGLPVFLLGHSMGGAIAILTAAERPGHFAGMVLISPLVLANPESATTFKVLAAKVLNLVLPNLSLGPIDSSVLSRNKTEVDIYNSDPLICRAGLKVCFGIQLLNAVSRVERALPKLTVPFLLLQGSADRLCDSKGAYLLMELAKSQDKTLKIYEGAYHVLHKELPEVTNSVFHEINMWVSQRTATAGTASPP
Assay: 2-AG assay: MAGL inhibitory activity by hydrolysis of 2-arachidonoylglycerol to arachidonic acid, followed by mass spectrometry
Assay type: biochemical
Conditions: 15 min preincubation, 30 min reaction at RT, 8 μM 2-arachidonoylglycerol
Source text: Compounds of formula (I) were profiled for MAGL inhibitory activity by determining the enzymatic activity by following the hydrolysis of the natural substrate 2-arachidonoylglycerol (2-AG) resulting in arachidonic acid, which can be followed by mass spectrometry. This assay is hereinafter abbreviated “2-AG assay”.
Compounds of formula (I) were profiled for MAGL inhibitory activity by determining the enzymatic activity by following the hydrolysis of the natural substrate 2-arachidonoylglycerol (2-AG) resulting in arachidonic acid, which can be followed by mass spectrometry. This assay is hereinafter abbreviated “2-AG assay”. The 2-AG assay was carried out in 384 well polypropylene assay plates. Compound dilutions were made in 100% DMSO in a polypropylene plate in 3-fold dilution steps to give a final concentration range in the assay from 12.5 μM to […]. Compound dilutions were added to MAGL protein in assay buffer (50 mM TRIS, 1 mM EDTA, 0.01% (v/v) Tween-20, 2.5% (v/v) DMSO). After shaking, the plate was incubated for 15 min at RT. To start the reaction, 2-arachidonoylglycerol in assay buffer was added. The final concentrations in the assay was […] for MAGL protein and 8 μM 2-arachidonoylglyerol. After shaking and 30 min incubation at RT, the reaction was quenched by the addition of two assay volumes of acetonitrile containing 4 μM of d8-arachidonic acid. The amount of arachidonic acid formed was traced by an online SPE system (Agilent Rapidfire) coupled to a triple quadrupole mass spectrometer. A C18 SPE cartridge (Agilent G9205A) was used in an acetonitrile/water liquid setup. The mass spectrometer was operated in negative electrospray mode following the mass transitions 303.1→259.1 for arachidonic acid and 311.1→267.0 for d8-arachidonic acid. The activity of the compounds was calculated based on the ratio of intensities [arachidonic acid/d 8-arachidonic acid].

Structure (SMILES)	IC50 [nM]
O=C1NC2(CO1)CN(C(=O)N1CC3(CC(Cn4cc(C(F)(F)F)cn4)C3)C1)C2 [Example 53, 2-[6-[[4-(trifluoromethyl)pyrazol-1-y1]methyl]-2-azaspiro[3.3]heptane-2-carbonyl]-7-oxa-2,5-diazaspiro[3.4]octan-6-one]	0.44
O=C1CCC2(CN(C(=O)N3CC4(CC(Cn5cc(C(F)(F)F)cn5)C4)C3)C2)N1 [Example 54, 2-[6-[[4-(trifluoromethyl)pyrazol-1-y1]methyl]-2-azaspiro[3.3]heptane-2-carbonyl]-2,5-diazaspiro[3.4]octan-6-one]	9.37
O=C1CCC2(CN(C(=O)N3CC4(CC(NS(=O)(=O)c5cccc(C(F)(F)F)c5)C4)C3)C2)N1 [Example 55, N-[2-(6-keto-2,5-diazaspiro[3.4]octane-2-carbonyl)-2-azaspiro[3.3]heptan-6-yl]-3-(trifluoromethyl)benzen esulfonamide]	9.81
O=C1NC2(CO1)CN(C(=O)N1CC3(CC(n4cnc(C5CC5)n4)C3)C1)C2 [Example 56, 2-[6-(3-cyclopropyl-1,2,4-triazol-1-yl)-2-azaspiro[3.3]heptane-2-carbonyl]-7-oxa-2,5-diazaspiro[3.4]octan-6-one]	12.9
O=C1CCC2(CN(C(=O)N3CC4(CC(Cc5nc(C(F)(F)F)ns5)C4)C3)C2)N1 [Example 57, 2-[6-[[3-(trifluoromethyl)-1,2,4-thiadiazol-5-y1]methyl]-2-azaspiro[3.3]heptane-2-carbonyl]-2,5-diazaspiro[3.4]octan-6-one]	13.4
O=C1CCC2(CN(C(=O)N3CC4(CC(Cc5nc(C(F)(F)F)co5)C4)C3)C2)N1 [Example 58, 2-[6-[[4-(trifluoromethyl)oxazol-2-yl]methyl]-2-azaspiro[3.3]heptane-2-carbonyl]-2,5-diazaspiro[3.4]octan-6-one]	17.3
O=C1CCC2(CN(C(=O)N3CC4(CC(Cn5cnc(C(F)(F)F)c5)C4)C3)C2)N1 [Example 59, 2-[6-[[4-(trifluoromethyl)imidazol-1-yl]methyl]-2-azaspiro[3.3]heptane-2-carbonyl]-2,5-diazaspiro[3.4]octan-6-one]	36.6
O=C1CCC2(CN(C(=O)N3CC4(CCC(Cc5ccc(C(F)(F)F)cn5)CC4)C3)C2)N1 [Example 60, 2-[7-[[5-(trifluoromethyl)-2-pyridyl]methyl]-2-azaspiro[3.5]nonane-2-carbonyl]-2,5-diazaspiro[3.4]octan-6-one]	0.74
O=C1NC2(CO1)CN(C(=O)N1CC3(CCC(Cc4ccc(C(F)(F)F)cn4)CC3)C1)C2 [Example 61, 2-[7-[[5-(trifluoromethyl)-2-pyridyl]methyl]-2-azaspiro[3.5]nonane-2-carbonyl]-7-oxa-2,5-diazaspiro[3.4]octan-6-one]	0.19
O=C1NC2(CO1)CN(C(=O)N1CC3(CCC(OCC4(C(F)(F)F)CC4)CC3)C1)C2 [Example 62, 2-[7-[[1-(trifluoromethyl)cyclopro-pyl]methoxy]-2-azaspiro[3.5]nonane-2-carbonyl]-7-oxa-2,5-diazaspiro[3.4]octan-6-one]	0.98
O=C1NC2(CO1)CN(C(=O)N1CC3(CC(c4cnc(C(F)(F)F)cn4)C3)C1)C2 [Example 63, 2-[6-[5-(trifluoromethyl)pyrazin-2-yl]-2-azaspiro[3.3]heptane-2-carbonyl]-7-oxa-2,5-diazaspiro[3.4]octan-6-one]	1.28
O=C1NC2(CO1)CN(C(=O)N1CC3(CC(OCC4(C(F)(F)F)CC4)C3)C1)C2 [Example 64, 2-[6-[[1-(trifluoromethyl)cyclopro-pyl]methoxy]-2-azaspiro[3.3]heptane-2-carbonyl]-7-oxa-2,5-diazaspiro[3.4]octan-6-one]	1.28
O=C1NC2(CO1)CN(C(=O)N1CC3(CC(NC4(C(F)(F)F)CC4)C3)C1)C2 [Example 65, 2-[6-[[1-(trifluoromethyl)cyclopro-pyl]amino]-2-azaspiro[3.3]heptane-2-carbonyl]-7-oxa-2,5-diazaspiro[3.4]octan-6-one]	1.85
O=C1CCC2(CN(C(=O)N3CC4(CC(Cn5cnc(C(F)(F)F)n5)C4)C3)C2)N1 [Example 66, 2-[6-[[3-(trifluoromethyl)-1,2,4-triazol-1-yl]methyl]-2-carbonyl]-2,5-diazaspiro[3.4]octan-6-one]	29.9
O=C1NC2(CO1)CN(C(=O)N1CC3(CC(C(=O)NC4(C(F)(F)F)CC4)C3)C1)C2 [Example 67, 2-(6-keto-7-oxa-2,5-diazaspiro[3.4]octane-carbonyl)-N-[1-(trifluoromethyl)cyclopro-pyl]-2-azaspiro[3.3]heptane-6-carboxamide]	88.6
O=C1NC2(CO1)CN(C(=O)N1CC3(CCC(Oc4ccnc(C(F)(F)F)n4)CC3)C1)C2 [Example 68, 2-[7-[2-(trifluoromethyl)pyrimi-din-4-yl]oxy-2-azaspiro[3.5]nonane-2-carbonyl]-7-oxa-2,5-diazaspiro[3.4]octan-6-one]	2.13
O=C1NC2(CO1)CN(C(=O)N1CC3(CCC(Oc4cnc(C(F)(F)F)cn4)CC3)C1)C2 [Example 69, 2-[7-[5-(trifluoromethyl)pyrazin-2-yl]oxy-2-azaspiro[3.5]nonane-2-carbonyl]-7-oxa-2,5-diazaspiro[3.4]octan-6-one]	0.83
O=C1NC2(CO1)CN(C(=O)N1CC3(CC(Oc4cnc(C(F)(F)F)cn4)C3)C1)C2 [Example 70, 2-[6-[5-(trifluoromethyl)pyrazin-2-yl]oxy-2-azaspiro[3.3]heptane-2-carbonyl]-7-oxa-2,5-diazaspiro[3.4]octan-6-one]	3.68
O=C1NC2(CO1)CN(C(=O)N1CC3(CCC(Oc4cnc(C(F)(F)F)cn4)C3)C1)C2 (stereo not shown) [Example 71, 2-[6-[5-(trifluoromethyl)pyrazin-2-yl]oxy-2-azaspiro[3.4]octane-2-carbonyl]-7-oxa-2,5-diazaspiro[3.4]octan-6-one]	3.29
CS(=O)(=O)c1ccc(CC2CCC3(C2)CN(C(=O)N2CC4(COCC(=O)N4)C2)C3)cc1 (stereo not shown) [Example 72, 2-[6-(4-mesylbenzyl)-2-azaspiro[3.4]octane-2-carbonyl]-8-oxa-2,5-diazaspiro[3.5]nonan-6-one]	98.2
O=C1CCC2(CN(C(=O)N3CC4(CC(Oc5ccc(C(F)(F)F)nn5)C4)C3)C2)N1 [Example 75, 2-[6-[6-(trifluoromethyl)pyridazin-3-yl]oxy-2-azaspiro[3.3]heptane-2-carbonyl]-2,5-diazaspiro[3.4]octan-6-one]	271
O=C1NC2(CO1)CN(C(=O)N1CC3(CC(Oc4ccc(C(F)(F)F)nn4)C3)C1)C2 [Example 76, 2-[6-[6-(trifluoromethyl)pyrida-zin-3-yl]oxy-2-azaspiro[3.3]heptane-2-carbonyl]-7-oxa-2,5-diazaspiro[3.4]octan-6-one]	8.33
CS(=O)(=O)c1ccc(CC2CCC3(C2)CN(C(=O)N2CC4(COC(=O)N4)C2)C3)cc1 (stereo not shown) [Example 77, 2-[6-(4-mesylbenzyl)-2-azaspiro[3.4]octane-2-carbonyl]-7-oxa-2,5-diazaspiro[3.4]octan-6-one]	0.91
O=C1NC2(CO1)CN(C(=O)N1CC3(CC(c4cnc(C(F)(F)F)nc4)C3)C1)C2 [Example 78, 2-[6-[2-(trifluoromethyl)pyrimi-din-5-yl]-2-azaspiro[3.3]heptane-2-carbonyl]-7-oxa-2,5-diazaspiro[3.4]octan-6-one]	2.3
O=C1NC2(CO1)CN(C(=O)N1CC3(CC(c4ccc(C(F)(F)F)nc4)C3)C1)C2 [Example 79, 2-[6-[6-(trifluoromethyl)-3-pyridyl]-2-azaspiro[3.3]heptane-2-carbonyl]-7-oxa-2,5-diazaspiro[3.4]octan-6-one]	3.79
O=C1NC2(CO1)CN(C(=O)N1CC3(CC(N4CC(C(F)(F)F)C4)C3)C1)C2 [Example 80, 2-[6-[3-(trifluoromethyl)azetidin-1-y1]-2-azaspiro[3.3]heptane-2-carbonyl]-7-oxa-2,5-diazaspiro[3.4]octan-6-one]	6.19
O=C1NC2(CO1)CN(C(=O)N1CC3(CC(N4CC(CC(F)(F)F)C4)C3)C1)C2 [Example 81, 2-[6-[3-(2,2,2-trifluoroethyl)azetidin-1-y1]-2-azaspiro[3.3]heptane-2-carbonyl]-7-oxa-2,5-diazaspiro[3.4]octan-6-one]	7.62
O=C1CCC2(CN(C(=O)N3CC4(CCN(Cc5ccc(S(=O)(=O)C(F)(F)F)cc5)CC4)C3)C2)N1 [Example 82, 2-[7-(4-triflylbenzyl)-2,7-diazaspiro[3.5]nonane-2-carbonyl]-2,5-diazaspiro[3.4]octan-6-one]	5.58
